Key:
[1] = target: T1, Sodium-dependent noradrenaline transporter (Homo sapiens, UniProt P23975); test: Inhibition of [3H]nisoxetine binding to norepinephrine transporter; details: concentration not given here
[2] = target: T2, Sodium-dependent serotonin transporter (Homo sapiens, UniProt P31645)
Target sequence in this assay (P31645 whole entry): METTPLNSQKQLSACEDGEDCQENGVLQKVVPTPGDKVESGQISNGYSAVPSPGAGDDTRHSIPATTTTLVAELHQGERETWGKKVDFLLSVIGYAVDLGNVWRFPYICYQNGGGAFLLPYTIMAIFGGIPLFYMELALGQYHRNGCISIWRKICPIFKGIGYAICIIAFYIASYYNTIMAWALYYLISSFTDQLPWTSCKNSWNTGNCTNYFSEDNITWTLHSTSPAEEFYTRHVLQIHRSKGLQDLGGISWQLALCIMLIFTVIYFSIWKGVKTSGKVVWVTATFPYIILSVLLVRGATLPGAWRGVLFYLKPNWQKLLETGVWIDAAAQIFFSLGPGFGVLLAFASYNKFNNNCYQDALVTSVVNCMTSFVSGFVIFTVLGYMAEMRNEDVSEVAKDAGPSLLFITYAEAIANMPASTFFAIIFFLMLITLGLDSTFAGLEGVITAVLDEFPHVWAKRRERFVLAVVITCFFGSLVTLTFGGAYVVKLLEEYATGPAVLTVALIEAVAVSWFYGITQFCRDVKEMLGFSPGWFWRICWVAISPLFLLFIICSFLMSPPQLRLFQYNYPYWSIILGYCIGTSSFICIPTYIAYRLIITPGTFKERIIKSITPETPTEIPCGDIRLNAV
Description: Binding affinity to serotonin transporter, using [3H]citalopram as radioligand

[3] = target: T1, Sodium-dependent noradrenaline transporter
Description: Inhibition of [3H]nisoxetine binding to norepinephrine (NE) transporter

[4] = target: T2, Sodium-dependent serotonin transporter; test: Binding affinity at serotonin transporter, using [3H]citalopram as radioligand at a concentration of 0.1 uM
Target sequence in this assay (P31645 whole entry, looked up): as the sequence (P31645 whole entry) above

Rattus norvegicus [5] = species: Rattus norvegicus
Description: Inhibition of serotonin uptake into rat synaptosomes

Rattus norvegicus [6] = species: Rattus norvegicus; remark: listed apart in the source
Description: Inhibition of dopamine uptake into rat synaptosomes

Rattus norvegicus [7] = species: Rattus norvegicus; remark: listed apart in the source
Description: Inhibition of norepinephrine uptake into rat synaptosomes

T1 sequence (P23975 whole entry): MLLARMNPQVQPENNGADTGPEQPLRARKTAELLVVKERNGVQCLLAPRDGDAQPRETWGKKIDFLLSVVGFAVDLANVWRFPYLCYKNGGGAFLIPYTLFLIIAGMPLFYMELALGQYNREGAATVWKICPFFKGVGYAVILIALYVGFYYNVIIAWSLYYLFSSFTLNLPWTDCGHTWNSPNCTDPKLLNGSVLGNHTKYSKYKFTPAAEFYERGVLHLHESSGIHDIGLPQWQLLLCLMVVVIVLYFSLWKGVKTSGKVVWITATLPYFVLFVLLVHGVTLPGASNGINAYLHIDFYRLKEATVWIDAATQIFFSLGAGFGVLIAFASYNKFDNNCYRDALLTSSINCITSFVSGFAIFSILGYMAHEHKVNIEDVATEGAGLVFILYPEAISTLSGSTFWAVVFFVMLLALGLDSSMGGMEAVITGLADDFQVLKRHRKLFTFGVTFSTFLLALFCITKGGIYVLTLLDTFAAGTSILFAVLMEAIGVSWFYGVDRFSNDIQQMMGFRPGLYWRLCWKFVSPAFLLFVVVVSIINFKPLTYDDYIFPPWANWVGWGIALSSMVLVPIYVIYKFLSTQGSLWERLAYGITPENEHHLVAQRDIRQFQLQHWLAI

inhibition [1]	Ki [2]	Ki [3]	SMILES	further results
55%	0.0145 µM		CNCCC(Oc1cccc2ccccc12)c1ccc(C(F)(F)F)cc1 (centres undefined)	
	0.0007 µM	0.02 µM	CNCCC(Oc1cccc2ccccc12)c1ccco1 (centres undefined)	
	0.0021 µM	0.036 µM	CNCCC(Oc1cccc2ccccc12)c1ccc(C)cc1 (centres undefined)	
	0.0022 µM	0.081 µM	CNCCC(Oc1cccc2ccccc12)c1cccc(OC)c1 (centres undefined)	
25%	0.075 µM		CNCCCOc1cccc2ccccc12	
39%			CNCCCOc1ccc2ccccc2c1	inhibition [4]: 23%
38%	0.01 µM		CNCCC(Oc1cccc2ccccc12)c1ccccc1C(F)(F)F (centres undefined)	
	0.0011 µM	0.021 µM	CNCCC(Oc1cccc2ccccc12)c1ccsc1 (centres undefined)	
	0.0035 µM	0.074 µM	CNCCC(Oc1cccc2ccccc12)c1ccc(OC)cc1 (centres undefined)	
25.5%	0.031 µM		CNCCCCOc1cccc2ccccc12	
23%			CNCCCCCOc1cccc2ccccc12	inhibition [4]: 35.5%
	0.019 µM	0.07 µM	CNCCC(Oc1cccc2ccccc12)c1cccc(C(F)(F)F)c1 (centres undefined)	
	0.0041 µM	0.16 µM	CNCCC(Oc1cccc2ccccc12)c1ccc(Br)cc1 (centres undefined)	
	0.0024 µM	0.02 µM	CNCCC(Oc1cccc2ccccc12)c1ccccc1 (centres undefined)	
	0.00095 µM	0.042 µM	CNCCC(Oc1cccc2ccccc12)c1ccc(F)cc1 (centres undefined)	
	0.0038 µM	0.078 µM	CNCCC(Oc1cccc2ccccc12)c1ccc(Cl)cc1 (centres undefined)	
	0.0076 µM	0.067 µM	CNCCC(Oc1cccc2ccccc12)c1cccc(Br)c1 (centres undefined)	
			CNCC[C@@H](Oc1ccccc1C)c1ccccc1 [ATOMOXETINE]	Ki (Rattus norvegicus [5]): 1.5 µM; Ki (Rattus norvegicus [6]): 2 µM; Ki (Rattus norvegicus [7]): 0.004 µM
	0.002 µM	0.11 µM	CNCCC(Oc1cccc2ccccc12)c1ccccc1C (centres undefined)	
17%			CNCCOc1cccc2ccccc12	inhibition [4]: 2%
	0.004 µM	0.04 µM	CNCCC(Oc1cccc2ccccc12)c1cccc(C)c1 (centres undefined)	
17%			CNCCCCOc1ccc2ccccc2c1	inhibition [4]: 32%
56%	0.0023 µM		CNCCC(Oc1cccc2ccccc12)c1ccccc1OC (centres undefined)	
	0.0064 µM	0.055 µM	CNCCC(Oc1cccc2ccccc12)c1nccs1 (centres undefined)	
